From patent US20060241114A1, “Derivatives of azasugars as anticancer agents” (priority 2003, published 2006)

How the values were obtained:
[1] = tested on: DU145 (prostate carcinoma); assay: In vitro growth inhibition screen (sulphorhodamine B), DU145; assay type: cell-based, human; details: DU145 cells, incubated for 48 hours, sulphorhodamine B dye; read-out: GI50 (concentration which inhibits the cell growth by 50%), DU145 Prostate carcinoma
Description: (§1) Each agent was tested over a broad concentration range (ten-fold dilutions starting from ≧100 μM to 10 nM) against 6 human cancer cell lines which was comprised of different tumor types. These are DU145 (prostate carcinoma), HT29 (colorectal adenocarcinoma), LOX (melanoma), MCF7 (breast adenocarcinoma), MCF7ADR (adriamycin resistant breast adenocarcinoma), and U251 (human glioblastoma). A standard compound doxorubicin was tested in each assay as a positive control. The cells were maintained in growing condition in RPMI 1640 medium containing 10% fetal calf serum and incubated at 37° C. under 5% CO2 atmosphere. All cell lines were inoculated onto a series of standard 96-well microtitre plate on day zero, followed by twenty four-hour incubation in the absence of test compound. The inoculation densities in the screen were as per Monk et al., (1991) J. Natl. Cancer Inst., 83, 757-766. All NCEs were dissolved in DMSO and diluted further in culture medium. An aliquot of each dilution was added to the growing cells in 96 well plates and incubated for 48 hours. After incubation, the assay was terminated by adding 50 μL of trichloroacetic acid (TCA) and incubating at 4° C. for 30 min. The precipitated cells were washed and stained with sulphorhodamine B dye for 30 min and the excess dye was washed off with acetic acid. Adsorbed dye was solubilised in Tris base (alkaline pH) and quantitated by measuring the OD at […] in ELISA READER. GI50 (concentration which inhibits the cell growth by 50%) was calculated according to Boyd and Paull, (1995) Drug Dev. Res., 34, 91-109.

[2] = tested on: HT29 (colorectal adenocarcinoma); assay: In vitro growth inhibition screen (sulphorhodamine B), HT29; assay type: cell-based, human; details: HT29 cells, incubated for 48 hours, sulphorhodamine B dye; read-out: GI50 (concentration which inhibits the cell growth by 50%), HT29 Colorectal adenocarcinoma
Description: as §1

[3] = tested on: LOX (melanoma); assay: In vitro growth inhibition screen (sulphorhodamine B), LOX; assay type: cell-based, human; details: LOX cells, incubated for 48 hours, sulphorhodamine B dye; read-out: GI50 (concentration which inhibits the cell growth by 50%), LOX Melanoma
Description: as §1

[4] = tested on: MCF7 (breast adenocarcinoma); assay: In vitro growth inhibition screen (sulphorhodamine B), MCF7; assay type: cell-based, human; details: MCF7 cells, incubated for 48 hours, sulphorhodamine B dye; read-out: GI50 (concentration which inhibits the cell growth by 50%), MCF7 Breast adenocarcinoma
Description: as §1

[5] = tested on: MCF7ADR (adriamycin resistant breast adenocarcinoma); assay: In vitro growth inhibition screen (sulphorhodamine B), MCF7ADR; assay type: cell-based, human; details: MCF7ADR cells, incubated for 48 hours, sulphorhodamine B dye; read-out: GI50 (concentration which inhibits the cell growth by 50%), MCF7ADR Adriamycin Resistant Breast adenocarcinoma
Description: as §1

[6] = tested on: U251 (human glioblastoma); assay: In vitro growth inhibition screen (sulphorhodamine B), U251; assay type: cell-based; details: U251 cells, incubated for 48 hours, sulphorhodamine B dye; read-out: GI50 (concentration which inhibits the cell growth by 50%), U251 Human glioblastoma astrocytoma
Description: as §1

SMILES	GI50 [1] [µM]	GI50 [2] [µM]	GI50 [3] [µM]	GI50 [4] [µM]	GI50 [5] [µM]	GI50 [6] [µM]
CCCN1C(=O)[C@H](OCc2ccccc2)[C@@H](OCc2ccccc2)[C@H](OCc2ccccc2)[C@H]1CNC(=S)NC(C)C [Compound No. 8, 2,3,4-Tri-O-benzyl-6-N-{[isopropyl]aminothiocarbonylamino}-N-propyl-D-gluco-δ-lactam]	3.4	9	2.2	1.3	0.6	2.5
CCCN1C(=O)C(OCc2ccccc2)C(OCc2ccccc2)C(OCc2ccccc2)C1CNC(=O)NS(=O)(=O)c1ccc(Cl)cc1 [Compound No. 12, 2,3,4-Tri-O-benzyl-6-N-{[p-chlorophenylsulfonyl]aminocarbonylamino}-N-propyl-D-gluco-δ-lactam]	48.7	29.3	41.6	88.2	35	61.8
CCCN1C(=O)[C@H](OCc2ccccc2)[C@@H](OCc2ccccc2)[C@H](OCc2ccccc2)[C@H]1CNC(=O)Nc1cccc(Cl)c1 [Compound No. 13, 2,3,4-Tri-O-benzyl-6-N-{[3-chlorophenyl]aminocarbonylamino}-N-propyl-D-gluco-δ-lactam]	4.2	3.6	3.1	6.4	4.6	6.4
CCCN1C(=O)[C@H](OCc2ccccc2)[C@@H](OCc2ccccc2)[C@H](OCc2ccccc2)[C@H]1CNC(=O)Nc1cccc(C(C)=O)c1 [Compound No. 14, 2,3,4-Tri-O-benzyl-6-N-{[3-acetylphenyl]aminocarbonylamino}-N-propyl-D-gluco-δ-lactam]	21	30.4	7.6	35.7	6.7	15
CCCN1C(=O)C(OCc2ccccc2)C(OCc2ccccc2)C(OCc2ccccc2)C1CNC(=O)Nc1cc(Cl)ccc1OC [Compound No. 15, 2,3,4-Tri-O-benzyl-6-N-{[3-chloro-6-methoxyphenyl]aminocarbonylamino}-N-propyl-D-gluco-δ-lactam]	44.4	41.9	57.2	29.9	53.8	40.8
CCCN1C(=O)[C@H](OCc2ccccc2)[C@@H](OCc2ccccc2)[C@H](OCc2ccccc2)[C@H]1CNC(=O)Nc1ccc(Cl)c(Cl)c1 [Compound No. 18, 2,3,4-Tri-O-benzyl-6-N-{[3,4-dichlorophenyl]aminocarbonylamino}-N-propyl-D-gluco-δ-lactam]	2.5	2.2	2	2	2.9	2.6
CCCN1C(=O)C(OCc2ccccc2)C(OCc2ccccc2)C(OCc2ccccc2)C1CNC(=O)NC(C)C [Compound No. 20, 2,3,4-Tri-O-benzyl-6-N-{[isopropyl]aminocarbonylamino}-N-propyl-D-gluco-δ-lactam]	15.3	2.6	5.9	4.1	5.5	3.3

Results, then the compound that gave them:

GI50 [1] [µM]	GI50 [2] [µM]	GI50 [3] [µM]	GI50 [4] [µM]	GI50 [5] [µM]	GI50 [6] [µM]	SMILES
> 353	68.6	10.8	> 353	58.4	63.5	CCCN1C(=O)[C@H](OCc2ccccc2)[C@@H](OCc2ccccc2)[C@H](OCc2ccccc2)[C@H]1CNC(=O)Nc1ccc(Cl)cc1C(F)(F)F [Compound No. 7, 2,3,4-Tri-O-benzyl-6-N-{[4-chloro-2-trifluoromethylphenyl]aminocarbonylamino}-N-propyl-D-gluco-δ-lactam]
22.1	40	6.9	35.8	13.9	20.2	CCCN1C(=O)[C@H](OCc2ccccc2)[C@@H](OCc2ccccc2)[C@H](OCc2ccccc2)[C@H]1CNC(=S)Nc1ccccc1 [Compound No. 9, 2,3,4-Tri-O-benzyl-6-N-{[phenyl]aminothiocarbonylamino}-N-propyl-D-gluco-δ-lactam]
39.3	36.9	12.5	34.7	16.7	16.4	CCCN1C(=O)[C@H](OCc2ccccc2)[C@@H](OCc2ccccc2)[C@H](OCc2ccccc2)[C@H]1CNC(=O)Nc1ccccc1 [Compound No. 10, 2,3,4-Tri-O-benzyl-6-N-{[phenyl]aminocarbonylamino}-N-propyl-D-gluco-δ-lactam]
2.7	2.7	2.1	2.4	2.6	3.2	CCCN1C(=O)[C@H](OCc2ccccc2)[C@@H](OCc2ccccc2)[C@H](OCc2ccccc2)[C@H]1CNC(=O)Nc1ccc(F)cc1 [Compound No. 11, 2,3,4-Tri-O-benzyl-6-N-{[p-fluorophenyl]aminocarbonylamino}-N-propyl-D-gluco-δ-lactam]
59.7	58.2	53.3	55.6	74.1	22.9	CCCN1C(=O)[C@H](OCc2ccccc2)[C@@H](OCc2ccccc2)[C@H](OCc2ccccc2)[C@H]1CNC(=O)Nc1ccc(F)cc1F [Compound No. 16, 2,3,4-Tri-O-benzyl-6-N-{[2,4-difluorophenyl]aminocarbonylamino}-N-propyl-D-gluco-δ-lactam]
82.2	213	170	> 528	348	206	CCCN1C(=O)[C@H](OCc2ccccc2)[C@@H](OCc2ccccc2)[C@H](OCc2ccccc2)[C@H]1CNC(=O)Nc1c(Cl)cc(Cl)cc1Cl [Compound No. 17, 2,3,4-Tri-O-benzyl-6-N-{[2,4,6-trichlorophenyl]aminocarbonylamino}-N-propyl-D-gluco-δ-lactam]
> 592	> 592	81.8	> 592	> 592	> 592	CCCN1C(=O)C(OCc2ccccc2)C(OCc2ccccc2)C(OCc2ccccc2)C1CNC(=O)Nc1ccc(Cl)cc1Cl [Compound No. 19, 2,3,4-Tri-O-benzyl-6-N-{[2,4-dichlorophenyl]aminocarbonylamino}-N-propyl-D-gluco-δ-lactam]
6.5	2	2.9	2.4	3.4	3.6	CCCN1C(=O)[C@H](OCc2ccccc2)[C@@H](OCc2ccccc2)[C@H](OCc2ccccc2)[C@H]1CNC(=S)Nc1ccc(Cl)cc1 [Compound No. 21, 2,3,4-Tri-O-benzyl-6-N-{[4-chlorophenyl]aminothiocarbonylamino}-N-propyl-D-gluco-δ-lactam]
5.1	11.9	4.3	39.8	8.2	5.1	CCCN1C(=O)[C@H](OCc2ccccc2)[C@@H](OCc2ccccc2)[C@H](OCc2ccccc2)[C@H]1CNC(=O)Nc1ccc(C(F)(F)F)cc1 [Compound No. 22, 2,3,4-Tri-O-benzyl-6-N-{[4-trifluoromethylphenyl]aminocarbonylamino}-N-propyl-D-gluco-δ-lactam]
